Experimental data as given in patent US12568972B2, “Pyridazinol compounds and derivatives, preparation methods, herbicidal compositions and applications thereof” (Qingdao Kingagroot Chemical Compound Co., Ltd., priority 2018, dated 2026).

The compounds below were run on Rorippa indica (assay: Post-emergence test, weed control effect). Details: Dose 3000 g/ha, after 3 weeks.
Format: in vivo
How it was run: (§1)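 Activity is expressed as a level from 0 (no effect) to 10 (plant dead), each step matching a further 10% fresh-weight inhibition, assessed 3 weeks post-treatment. Treatment: spray at 2-3 leaf stage of pot-grown plants, compound in acetone, Tween-80 and water with 80% vegetable oil methyl ester synergist at 1500 g/ha.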
With O=C(Oc1cc(C(F)(F)F)nnc1-c1ccc(F)cc1)c1ccno1 [Compound 1-109] the “weed control effect, Rorippa indica (activity level)” value (“weed control effect, Rorippa indica” below) was 10. Cn1ccc2ccc(S(=O)(=O)Oc3cc(C(F)(F)F)nnc3-c3ccc(F)c(F)c3)cc21 [Compound 1-152] was tested, and the “weed control effect, Rorippa indica” value was 10. In the case of CCCCCCCCC(=O)Oc1cc(C(F)(F)F)nnc1-c1cccc(Br)c1 [Compound 1-15], the “weed control effect, Rorippa indica” value is reported as 10. For O=S(=O)(Oc1cc(C(F)(F)F)nnc1-c1ccc(C(F)(F)F)cc1)c1cccc2ccccc12 [Compound 1-144], the “weed control effect, Rorippa indica” value was 10. With Cc1ncccc1-c1nnc(C(F)(F)F)cc1O [Compound 973] the “weed control effect (activity level), Rorippa indica” value was 10. With CCC(=O)Oc1cc(C(F)(F)F)nnc1-c1ccc(F)c(F)c1 [Compound 1-3] the “weed control effect, Rorippa indica” value was 10. For Oc1cc(C(F)(F)F)nnc1-c1ccc(C(F)(F)F)cc1 [Compound 746], the “weed control effect (activity level), Rorippa indica” value was 10. With CP(=O)(O)CCC(N)C(=O)Oc1cc(C(F)(F)F)nnc1-c1ccc(F)cc1 (stereo not drawn) [Compound 1-78] the “weed control effect, Rorippa indica” value was 10. CC(C)(C)C(=O)Oc1cc(C(F)(F)F)nnc1-c1ccc(C(F)(F)F)nc1 [Compound 1-9] was tested, and the “weed control effect, Rorippa indica” value was 10. With Cn1cccc1C(=O)Oc1cc(C(F)(F)F)nnc1-c1ccccc1 [Compound 1-105] the “weed control effect, Rorippa indica” value was 10. For O=S(=O)(Oc1cc(C(F)(F)F)nnc1-c1ccccc1)c1cc(Cl)c(Cl)cc1Cl [Compound 1-136], the “weed control effect, Rorippa indica” value was 10. In the case of Cn1nc(C(F)F)cc1-c1nnc(C(F)(F)F)cc1O [Compound 794], the “weed control effect (activity level), Rorippa indica” value is reported as 10. With O=C(COCc1ccccc1)Oc1cc(C(F)(F)F)nnc1-c1ccc(F)c(F)c1 [Compound 1-100] the “weed control effect, Rorippa indica” value was 10. In the case of O=S(=O)(Oc1cc(C(F)(F)F)nnc1-c1ccc(Cl)cc1)c1cccc(OC(F)F)c1 [Compound 1-139], the “weed control effect, Rorippa indica” value is reported as 10. CCn1nc(C2CC2)cc1-c1nnc(C(F)(F)F)cc1O [Compound 827] was tested, and the “weed control effect (activity level), Rorippa indica” value was 10. For Cn1ncc(OCc2ccccc2)c1-c1nnc(C(F)(F)F)cc1O [Compound 813], the “weed control effect (activity level), Rorippa indica” value was 10. Cc1cnn(C)c1-c1nnc(C(F)(F)F)cc1O [Compound 808] was tested, and the “weed control effect (activity level), Rorippa indica” value was 10. With O=[N+]([O-])c1cc(-c2nnc(C(F)(F)F)cc2O)ccc1Br [Compound 755] the “weed control effect (activity level), Rorippa indica” value was 10.

Each compound was assayed on Amaranthus retroflexus (assay: Post-emergence test, weed control effect). Details: Dose 3000 g/ha, after 3 weeks.
Format: in vivo
How it was run: as §1
For O=C(Oc1cc(C(F)(F)F)nnc1-c1ccc(F)cc1)c1ccno1 [Compound 1-109], the “weed control effect, Amaranthus retroflexus (activity level)” value was 10. In the case of Cn1ccc2ccc(S(=O)(=O)Oc3cc(C(F)(F)F)nnc3-c3ccc(F)c(F)c3)cc21 [Compound 1-152], the “weed control effect, Amaranthus retroflexus (activity level)” value is reported as 10. For CCCCCCCCC(=O)Oc1cc(C(F)(F)F)nnc1-c1cccc(Br)c1 [Compound 1-15], the “weed control effect, Amaranthus retroflexus (activity level)” value was 10. O=S(=O)(Oc1cc(C(F)(F)F)nnc1-c1ccc(C(F)(F)F)cc1)c1cccc2ccccc12 [Compound 1-144] was tested, and the “weed control effect, Amaranthus retroflexus (activity level)” value was 10. With Cc1ncccc1-c1nnc(C(F)(F)F)cc1O [Compound 973] the “weed control effect (activity level), Amaranthus retroflexus” value was 10. CCC(=O)Oc1cc(C(F)(F)F)nnc1-c1ccc(F)c(F)c1 [Compound 1-3] was tested, and the “weed control effect, Amaranthus retroflexus (activity level)” value was 10. Oc1cc(C(F)(F)F)nnc1-c1ccc(C(F)(F)F)cc1 [Compound 746] was tested, and the “weed control effect (activity level), Amaranthus retroflexus” value was 10. For CP(=O)(O)CCC(N)C(=O)Oc1cc(C(F)(F)F)nnc1-c1ccc(F)cc1 (stereo not drawn) [Compound 1-78], the “weed control effect, Amaranthus retroflexus (activity level)” value was 10. With CC(C)(C)C(=O)Oc1cc(C(F)(F)F)nnc1-c1ccc(C(F)(F)F)nc1 [Compound 1-9] the “weed control effect, Amaranthus retroflexus (activity level)” value was 10. With Cn1cccc1C(=O)Oc1cc(C(F)(F)F)nnc1-c1ccccc1 [Compound 1-105] the “weed control effect, Amaranthus retroflexus (activity level)” value was 10. O=S(=O)(Oc1cc(C(F)(F)F)nnc1-c1ccccc1)c1cc(Cl)c(Cl)cc1Cl [Compound 1-136] was tested, and the “weed control effect, Amaranthus retroflexus (activity level)” value was 10. With Cn1nc(C(F)F)cc1-c1nnc(C(F)(F)F)cc1O [Compound 794] the “weed control effect (activity level), Amaranthus retroflexus” value was 10. O=C(COCc1ccccc1)Oc1cc(C(F)(F)F)nnc1-c1ccc(F)c(F)c1 [Compound 1-100] was tested, and the “weed control effect, Amaranthus retroflexus (activity level)” value was 10. O=S(=O)(Oc1cc(C(F)(F)F)nnc1-c1ccc(Cl)cc1)c1cccc(OC(F)F)c1 [Compound 1-139] was tested, and the “weed control effect, Amaranthus retroflexus (activity level)” value was 10. CCn1nc(C2CC2)cc1-c1nnc(C(F)(F)F)cc1O [Compound 827] was tested, and the “weed control effect (activity level), Amaranthus retroflexus” value was 10. Cn1ncc(OCc2ccccc2)c1-c1nnc(C(F)(F)F)cc1O [Compound 813] was tested, and the “weed control effect (activity level), Amaranthus retroflexus” value was 10. With Cc1cnn(C)c1-c1nnc(C(F)(F)F)cc1O [Compound 808] the “weed control effect (activity level), Amaranthus retroflexus” value was 10. In the case of O=[N+]([O-])c1cc(-c2nnc(C(F)(F)F)cc2O)ccc1Br [Compound 755], the “weed control effect (activity level), Amaranthus retroflexus” value is reported as 10.

These compounds were tested on Chenopodiaceae (assay: Post-emergence test, weed control effect). Details: Dose 3000 g/ha, after 3 weeks.
Format: in vivo
How it was run: as §1
With O=C(Oc1cc(C(F)(F)F)nnc1-c1ccc(F)cc1)c1ccno1 [Compound 1-109] the “weed control effect, Chenopodiaceae (activity level)” value (“weed control effect, Chenopodiaceae” for short) was 10. Cn1ccc2ccc(S(=O)(=O)Oc3cc(C(F)(F)F)nnc3-c3ccc(F)c(F)c3)cc21 [Compound 1-152] was tested, and the “weed control effect, Chenopodiaceae” value was 10. CCCCCCCCC(=O)Oc1cc(C(F)(F)F)nnc1-c1cccc(Br)c1 [Compound 1-15] was tested, and the “weed control effect, Chenopodiaceae” value was 10. With O=S(=O)(Oc1cc(C(F)(F)F)nnc1-c1ccc(C(F)(F)F)cc1)c1cccc2ccccc12 [Compound 1-144] the “weed control effect, Chenopodiaceae” value was 10. Cc1ncccc1-c1nnc(C(F)(F)F)cc1O [Compound 973] was tested, and the “weed control effect (activity level), Chenopodiaceae” value was 10. CCC(=O)Oc1cc(C(F)(F)F)nnc1-c1ccc(F)c(F)c1 [Compound 1-3] was tested, and the “weed control effect, Chenopodiaceae” value was 10. In the case of Oc1cc(C(F)(F)F)nnc1-c1ccc(C(F)(F)F)cc1 [Compound 746], the “weed control effect (activity level), Chenopodiaceae” value is reported as 10. CP(=O)(O)CCC(N)C(=O)Oc1cc(C(F)(F)F)nnc1-c1ccc(F)cc1 (stereo not drawn) [Compound 1-78] was tested, and the “weed control effect, Chenopodiaceae” value was 10. In the case of CC(C)(C)C(=O)Oc1cc(C(F)(F)F)nnc1-c1ccc(C(F)(F)F)nc1 [Compound 1-9], the “weed control effect, Chenopodiaceae” value is reported as 10. Cn1cccc1C(=O)Oc1cc(C(F)(F)F)nnc1-c1ccccc1 [Compound 1-105] was tested, and the “weed control effect, Chenopodiaceae” value was 10. O=S(=O)(Oc1cc(C(F)(F)F)nnc1-c1ccccc1)c1cc(Cl)c(Cl)cc1Cl [Compound 1-136] was tested, and the “weed control effect, Chenopodiaceae” value was 10. With Cn1nc(C(F)F)cc1-c1nnc(C(F)(F)F)cc1O [Compound 794] the “weed control effect (activity level), Chenopodiaceae” value was 10. With O=C(COCc1ccccc1)Oc1cc(C(F)(F)F)nnc1-c1ccc(F)c(F)c1 [Compound 1-100] the “weed control effect, Chenopodiaceae” value was 10. With O=S(=O)(Oc1cc(C(F)(F)F)nnc1-c1ccc(Cl)cc1)c1cccc(OC(F)F)c1 [Compound 1-139] the “weed control effect, Chenopodiaceae” value was 10. CCn1nc(C2CC2)cc1-c1nnc(C(F)(F)F)cc1O [Compound 827] was tested, and the “weed control effect (activity level), Chenopodiaceae” value was 10. For Cn1ncc(OCc2ccccc2)c1-c1nnc(C(F)(F)F)cc1O [Compound 813], the “weed control effect (activity level), Chenopodiaceae” value was 10. For Cc1cnn(C)c1-c1nnc(C(F)(F)F)cc1O [Compound 808], the “weed control effect (activity level), Chenopodiaceae” value was 10. With O=[N+]([O-])c1cc(-c2nnc(C(F)(F)F)cc2O)ccc1Br [Compound 755] the “weed control effect (activity level), Chenopodiaceae” value was 10.

These compounds were tested on Veronica polita (assay: Post-emergence test, weed control effect). Details: Dose 3000 g/ha, after 3 weeks.
Format: in vivo
How it was run: as §1
In the case of O=C(Oc1cc(C(F)(F)F)nnc1-c1ccc(F)cc1)c1ccno1 [Compound 1-109], the “weed control effect, Veronica polita (activity level)” value (from here on “weed control effect, Veronica polita”) is reported as 10. Cn1ccc2ccc(S(=O)(=O)Oc3cc(C(F)(F)F)nnc3-c3ccc(F)c(F)c3)cc21 [Compound 1-152] was tested, and the “weed control effect, Veronica polita” value was 10. With CCCCCCCCC(=O)Oc1cc(C(F)(F)F)nnc1-c1cccc(Br)c1 [Compound 1-15] the “weed control effect, Veronica polita” value was 10. In the case of O=S(=O)(Oc1cc(C(F)(F)F)nnc1-c1ccc(C(F)(F)F)cc1)c1cccc2ccccc12 [Compound 1-144], the “weed control effect, Veronica polita” value is reported as 10. In the case of Cc1ncccc1-c1nnc(C(F)(F)F)cc1O [Compound 973], the “weed control effect (activity level), Veronica polita” value is reported as 10. For CCC(=O)Oc1cc(C(F)(F)F)nnc1-c1ccc(F)c(F)c1 [Compound 1-3], the “weed control effect, Veronica polita” value was 10. For Oc1cc(C(F)(F)F)nnc1-c1ccc(C(F)(F)F)cc1 [Compound 746], the “weed control effect (activity level), Veronica polita” value was 10. In the case of CP(=O)(O)CCC(N)C(=O)Oc1cc(C(F)(F)F)nnc1-c1ccc(F)cc1 (stereo not drawn) [Compound 1-78], the “weed control effect, Veronica polita” value is reported as 10. In the case of CC(C)(C)C(=O)Oc1cc(C(F)(F)F)nnc1-c1ccc(C(F)(F)F)nc1 [Compound 1-9], the “weed control effect, Veronica polita” value is reported as 10. In the case of Cn1cccc1C(=O)Oc1cc(C(F)(F)F)nnc1-c1ccccc1 [Compound 1-105], the “weed control effect, Veronica polita” value is reported as 10. In the case of O=S(=O)(Oc1cc(C(F)(F)F)nnc1-c1ccccc1)c1cc(Cl)c(Cl)cc1Cl [Compound 1-136], the “weed control effect, Veronica polita” value is reported as 10. In the case of Cn1nc(C(F)F)cc1-c1nnc(C(F)(F)F)cc1O [Compound 794], the “weed control effect (activity level), Veronica polita” value is reported as 10. With O=C(COCc1ccccc1)Oc1cc(C(F)(F)F)nnc1-c1ccc(F)c(F)c1 [Compound 1-100] the “weed control effect, Veronica polita” value was 10. With O=S(=O)(Oc1cc(C(F)(F)F)nnc1-c1ccc(Cl)cc1)c1cccc(OC(F)F)c1 [Compound 1-139] the “weed control effect, Veronica polita” value was 10. CCn1nc(C2CC2)cc1-c1nnc(C(F)(F)F)cc1O [Compound 827] was tested, and the “weed control effect (activity level), Veronica polita” value was 10. For Cn1ncc(OCc2ccccc2)c1-c1nnc(C(F)(F)F)cc1O [Compound 813], the “weed control effect (activity level), Veronica polita” value was 10. In the case of Cc1cnn(C)c1-c1nnc(C(F)(F)F)cc1O [Compound 808], the “weed control effect (activity level), Veronica polita” value is reported as 10. In the case of O=[N+]([O-])c1cc(-c2nnc(C(F)(F)F)cc2O)ccc1Br [Compound 755], the “weed control effect (activity level), Veronica polita” value is reported as 10.
